Laboratory results from patent US20240238423A9, “TETRAHYDROISOQUINOLINE HETEROBIFUNCTIONAL BCL-XL DEGRADERS” (Treeline Biosciences, Inc., priority 2022, published 2024).
Like-named read-outs stand apart in the source and are kept apart here.

Molecular target: T1, Human BCL-XL protein (N-terminal HiBiT tagged BCL-XL in HT1080 cells) (Homo sapiens, UniProt Q07817)
T1 construct: expressed in transfected cells; host or cells: HT-1080 (ATCC CCL-121), stably transduced with lentivirus pLV-UBC-N-HiBiT-BCL-XL-PGK-puro and selected with puromycin
T1 sequence (Q07817 whole entry): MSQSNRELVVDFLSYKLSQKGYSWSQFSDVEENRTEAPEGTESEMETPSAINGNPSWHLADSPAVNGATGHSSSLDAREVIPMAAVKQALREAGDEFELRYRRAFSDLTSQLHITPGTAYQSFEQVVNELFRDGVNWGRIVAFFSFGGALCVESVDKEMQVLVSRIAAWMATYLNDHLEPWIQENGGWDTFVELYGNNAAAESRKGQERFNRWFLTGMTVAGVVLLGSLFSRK
Test: HiBiT based degradation assay
Format: cell-based
Details: HT1080 cells expressing HiBiT-BCL-XL; for Ymin (24 h) / Ymin (6 h): BCL-XL degradation normalized with DMSO control; for DC50: BCL-XL degradation
How it was run: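 This HiBiT degradation assay measured loss of BCL-XL in HT1080 cells that stably express an N-terminal HiBiT-BCL-XL fusion delivered by lentivirus. Cells were added to compound-spotted 384-well plates, and luminescence was read on a PHERAstar FSX reader. Signal was expressed relative to DMSO controls, curves were fitted by four-parameter logistic regression, and for hook-shaped curves the Ymin point served as the bottom plateau when calculating EC50.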

SMILES	Ymin (24 h)	DC50 (24 h, read-out: EC50 (24 h))	Ymin (6 h)	DC50 (6 h, read-out: EC50 (6 h))
Cc1c(OCCC2CCN(CCN3CCC(c4cccc5c(C6CCC(=O)NC6=O)nn(C)c45)CC3)CC2)cccc1-c1ccc(N2CCc3cccc(C(=O)Nc4nc5ccccc5s4)c3C2)nc1C(=O)O (stereo not drawn) [Compound 249, 6-[8-(1,3-benzothiazol-2-ylcarbamoyl)-3,4-dihydro-1H-isoquinolin-2-yl]-3-[3-[2-[1-[2-[4-[3-(2,6-dioxo-3-piperidyl)-1-methyl-indazol-7-yl]-1-piperidyl]ethyl]-4-piperidyl]ethoxy]-2-methyl-phenyl] pyridine-2-carboxylic acid]	A (Ymin < 50%)	< 100 nM	–	–
Cc1c(OCCC[C@H]2CCCN(CC(=O)Nc3cccc4c(C5CCC(=O)NC5=O)nn(C)c34)C2)cccc1-c1ccc(N2CCc3cccc(C(=O)Nc4nc5ccccc5s4)c3C2)nc1C(=O)O (single isomer, unassigned) [Compound 210b]	C (Ymin ≥ 70%)	< 100 nM	C (Ymin ≥ 70%)	1000 to 10000 nM
Cc1c(O[C@H]2CC[C@H](CCCC3CCN(c4ccc5c(C6CCC(=O)NC6=O)nn(C)c5c4)CC3)CC2)cccc1-c1ccc(N2CCc3cccc(C(=O)Nc4nc5ccccc5s4)c3C2)nc1C(=O)O (stereo partly drawn) [Compound 311b, 6-(8-(benzo[d]thiazol-2-ylcarbamoyl)-3,4-dihydroisoquinolin-2(1H)-yl)-3-(3-(((1s,4r)-4-(3-(1-(3-(2,6-dioxopiperidin-3-yl)-1-methyl-1H-indazol-6-yl)piperidin-4-yl)propyl)cyclohexyl)oxy)-2-methylphenyl)picolinic acid]	B (50% ≤ Ymin < 70%)	< 100 nM	–	–
Cc1cc(O[C@H]2CC[C@H](CCCN3CCN(c4ccc5c(C6CCC(=O)NC6=O)nn(C)c5c4)CC3)CC2)ccc1-c1ccc(N2CCc3cccc(C(=O)Nc4nc5ccccc5s4)c3C2)nc1C(=O)O (stereo partly drawn) [Compound 254a, 6-(8-(benzo[d]thiazol-2-ylcarbamoyl)-3,4-dihydroisoquinolin-2(1H)-yl)-3-(4-(((1s,4r)-4-(3-(4-(3-(2,6-dioxopiperidin-3-yl)-1-methyl-1H-indazol-6-yl)piperazin-1-yl)propyl)cyclohexyl)oxy)-2-methylphenyl)picolinic acid]	A (Ymin < 50%)	< 100 nM	–	–
Cc1c(OCCC2CCN(CC(=O)Nc3ccc4c(C5CCC(=O)NC5=O)nn(C)c4c3)CC2)cccc1-c1ccc(N2CCc3cccc(C(=O)Nc4nc5ccccc5s4)c3C2)nc1C(=O)O (stereo not drawn) [Compound 106, 6-[8-(1,3-benzothiazol-2-ylcarbamoyl)-3,4-dihydro-1H-isoquinolin-2-yl]-3-[3-[2-[1-[2-[[3-(2,6-dioxo-3-piperidyl)-1-methyl-indazol-6-yl]amino]-2-oxo-ethyl]-4-piperidyl]ethoxy]-2-methyl-phenyl]pyridine-2-carboxylic acid]	A (Ymin < 50%)	< 100 nM	A (Ymin < 50%)	< 100 nM
Cc1c(O[C@H]2CC[C@H](CCCN3CCN(c4ccc5c(C6CCC(=O)NC6=O)nn(C)c5c4C)CC3)CC2)cccc1-c1ccc(N2CCc3cccc(C(=O)Nc4nc5ccccc5s4)c3C2)nc1C(=O)O (stereo partly drawn) [Compound 334a, 6-(8-(benzo[d]thiazol-2-ylcarbamoyl)-3,4-dihydroisoquinolin-2(1H)-yl)-3-(3-(((1s,4r)-4-(3-(4-(3-(2,6-dioxopiperidin-3-yl)-1,7-dimethyl-1H-indazol-6-yl)piperazin-1-yl)propyl)cyclohexyl)oxy)-2-methylphenyl)picolinic acid]	A (Ymin < 50%)	< 100 nM	–	–
Cn1nc(C2CCC(=O)NC2=O)c2ccc(NC(=O)CN3CCC(CCCOc4cccc(-c5ccc(N6CCc7cccc(C(=O)Nc8nc9ccccc9s8)c7C6)nc5C(=O)O)c4)CC3)cc21 (stereo not drawn) [Compound 314, 6-(8-(benzo[d]thiazol-2-ylcarbamoyl)-3,4-dihydroisoquinolin-2(1H)-yl)-3-(3-(3-(1-(2-((3-(2,6-dioxopiperidin-3-yl)-1-methyl-1H-indazol-6-yl)amino)-2-oxoethyl)piperidin-4-yl)propoxy)phenyl)picolinic acid]	B (50% ≤ Ymin < 70%)	< 100 nM	–	–

Second part, the compound after the results:

Ymin (24 h)	DC50 (24 h, read-out: EC50 (24 h))	Ymin (6 h)	DC50 (6 h, read-out: EC50 (6 h))	SMILES
A (Ymin < 50%)	< 100 nM	A (Ymin < 50%)	< 100 nM	Cc1c(OCCCC2CCN(CC(=O)N3CCN(c4cccc5c(C6CCC(=O)NC6=O)nn(C)c45)CC3)CC2)cccc1-c1ccc(N2CCc3cccc(C(=O)Nc4nc5ccccc5s4)c3C2)nc1C(=O)O (stereo not drawn) [Compound 144, 6-[8-(1,3-benzothiazol-2-ylcarbamoyl)-3,4-dihydro-1H-isoquinolin-2-yl]-3-[3-[3-[1-[2-[4-[3-(2,6-dioxo-3-piperidyl)-1-methyl-indazol-7-yl]piperazin-1-yl]-2-oxo-ethyl]-4-piperidyl]propoxy]-2-methyl-phenyl]pyridine-2-carboxylic acid]
A (Ymin < 50%)	< 100 nM	B (50% ≤ Ymin < 70%)	< 100 nM	Cc1c(OCCCN2CCN(CC(=O)Nc3ccc4c(C5CCC(=O)NC5=O)nn(C)c4c3)CC2)cccc1-c1ccc(N2CCc3cccc(C(=O)Nc4nc5ccccc5s4)c3C2)nc1C(=O)O (stereo not drawn) [Compound 104, 6-[8-(1,3-benzothiazol-2-ylcarbamoyl)-3,4-dihydro-1H-isoquinolin-2-yl]-3-[3-[3-[4-[2-[[3-(2,6-dioxo-3-piperidyl)-1-methyl-indazol-6-yl]amino]-2-oxo-ethyl]piperazin-1-yl]propoxy]-2-methyl-phenyl]pyridine-2-carboxylic acid]
B (50% ≤ Ymin < 70%)	< 100 nM	–	–	Cc1c(Oc2ccc(CCCC(=O)N3CCN(c4cccc5c(C6CCC(=O)NC6=O)nn(C)c45)CC3)cc2)cccc1-c1ccc(N2CCc3cccc(C(=O)Nc4nc5ccccc5s4)c3C2)nc1C(=O)O (stereo not drawn) [Compound 191, 6-(8-(benzo[d]thiazol-2-ylcarbamoyl)-3,4-dihydroisoquinolin-2(1H)-yl)-3-(3-(4-(4-(4-(3-(2,6-dioxopiperidin-3-yl)-1-methyl-1H-indazol-7-yl)piperazin-1-yl)-4-oxobutyl)phenoxy)-2-methylphenyl)picolinic acid]
A (Ymin < 50%)	< 100 nM	–	–	Cc1c(O[C@H]2CC[C@H](CC[C@H](C)N3CCN(c4cccc5c(C6CCC(=O)NC6=O)nn(C)c45)CC3)CC2)cccc1-c1ccc(N2CCc3cccc(C(=O)Nc4nc5ccccc5s4)c3C2)nc1C(=O)O (single isomer, unassigned) [Compound 283a]
B (50% ≤ Ymin < 70%)	< 100 nM	B (50% ≤ Ymin < 70%)	< 100 nM	Cc1c(OCCC2CCN(CC(=O)Nc3cccc4c(C5CCC(=O)NC5=O)nn(C)c34)CC2)cccc1-c1ccc(N2CCc3cccc(C(=O)Nc4nc5ccccc5s4)c3C2)nc1C(=O)O (stereo not drawn) [Compound 101, 6-[8-(1,3-benzothiazol-2-ylcarbamoyl)-3,4-dihydro-1H-isoquinolin-2-yl]-3-[3-[2-[1-[2-[[3-(2,6-dioxo-3-piperidyl)-1-methyl-indazol-7-yl]amino]-2-oxo-ethyl]-4-piperidyl]ethoxy]-2-methyl-phenyl]pyridine-2-carboxylic acid]
A (Ymin < 50%)	< 100 nM	–	–	Cc1c(O[C@H]2CC[C@H](CCCCN3CCN(c4ccc5c(C6CCC(=O)NC6=O)nn(C)c5c4)[C@@H](C)C3)CC2)cccc1-c1ccc(N2CCc3cccc(C(=O)Nc4nc5ccccc5s4)c3C2)nc1C(=O)O (stereo partly drawn) [Compound 300b, 6-(8-(benzo[d]thiazol-2-ylcarbamoyl)-3,4-dihydroisoquinolin-2(1H)-yl)-3-(3-(((1r,4r)-4-(4-((3S)-4-(3-(2,6-dioxopiperidin-3-yl)-1-methyl-1H-indazol-6-yl)-3-methylpiperazin-1-yl)butyl)cyclohexyl)oxy)-2-methylphenyl)picolinic acid]
B (50% ≤ Ymin < 70%)	< 100 nM	–	–	Cc1c(OCCCC2CCN(CC(=O)Nc3ccc4c(C5CCC(=O)NC5=O)nn(C)c4c3F)CC2)cccc1-c1ccc(N2CCc3cccc(C(=O)Nc4nc5ccccc5s4)c3C2)nc1C(=O)O (stereo not drawn) [Compound 302, 6-[8-(1,3-benzothiazol-2-ylcarbamoyl)-3,4-dihydro-1H-isoquinolin-2-yl]-3-[3-[3-[1-[2-[[3-(2,6-dioxo-3-piperidyl)-7-fluoro-1-methyl-indazol-6-yl]amino]-2-oxo-ethyl]-4-piperidyl]propoxy]-2-methyl-phenyl]pyridine-2-carboxylic acid]
A (Ymin < 50%)	< 100 nM	–	–	Cc1c(O[C@H]2CC[C@H](C[C@@H](C)CCN3CCN(c4ccc5c(C6CCC(=O)NC6=O)nn(C)c5c4)CC3)CC2)cccc1-c1ccc(N2CCc3cccc(C(=O)Nc4nc5ccccc5s4)c3C2)nc1C(=O)O (single isomer, unassigned) [Compound 307b]
A (Ymin < 50%)	< 100 nM	–	–	Cc1c(O[C@H]2CC[C@H](CCC(C)(C)N3CCN(c4cccc5c(C6CCC(=O)NC6=O)nn(C)c45)CC3)CC2)cccc1-c1ccc(N2CCc3cccc(C(=O)Nc4nc5ccccc5s4)c3C2)nc1C(=O)O (stereo partly drawn) [Compound 341a, 6-(8-(benzo[d]thiazol-2-ylcarbamoyl)-3,4-dihydroisoquinolin-2(1H)-yl)-3-(3-(((is, 4r)-4-(3-(4-(3-(2,6-dioxopiperidin-3-yl)-1-methyl-1H-indazol-7-yl)piperazin-1-yl)-3-methylbutyl)cyclohexyl)oxy)-2-methylphenyl)picolinic acid]
